Test results as given in patent US11395847B2, “Acylated GLP-1/GLP-2 dual agonists” (Zealand Pharma A/S, priority 2016, dated 2022).
Read-outs that look alike come from different tables or passages of the source. Where a SMILES comes first, the peptide text is derived from it.

Tests used:
[1] = test system: Normal chow-fed C57BL/6J male mice; assay: Effect on fasting glucose and intestinal weight in normal mice; assay type: in vivo; conditions: for Small intestinal wet weight: 100 nmol/kg s.c. once daily for 4 days, sacrificed 24 hours after final dosing; for Fasting blood glucose: 100 nmol/kg s.c., day 0 after a single injection, fasted mice
Procedure: Normal chow-fed C57BL/6J male mice were used. The mice were kept in standard housing conditions, light-, temperature-, and humidity-controlled room (12:12 h light-dark cycle, with lights on at 06.00-18.00 h; 20-22° C.; 50-80% relative humidity). Each dosing group consisted of 6 animals. Mice were dosed once daily with 100 nmol/kg with the test compounds or vehicle for 4 days via subcutaneous administration.
On day 0 mice were fasted and blood glucose levels measured after a single s.c. injection with peptides. Animals were sacrificed 24 hours after final dosing on day 3, and small intestinal wet weights were measured.

[2] = target: T1, human GLP-1 receptor (Homo sapiens, UniProt P43220); assay: GLP-1 receptor potency assay (cAMP ALPHASCREEN, HEK293 cells stably expressing GLP-1 R); assay type: cell-based; conditions: cAMP response, HEK293 cells expressing human GLP-1 R
T1 construct: expressed in transfected cells
How it was run: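 Clonal HEK293 line stably transfected with human GLP-1R (G418-selected) was treated with test compounds and the cAMP response quantified by ALPHASCREEN. Signals were normalized to positive control and vehicle, with EC50 and maximal response taken from concentration-response curves.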

[3] = target: T2, human GLP-2 receptor (Homo sapiens, UniProt O95838, D470N); assay: GLP-2 receptor potency assay (cAMP ALPHASCREEN, HEK293 cells stably expressing GLP-2 R); assay type: cell-based; conditions: cAMP response, HEK293 cells expressing human GLP-2 R; read-out: EC50 GLP-2
T2 construct: expressed in transfected cells
T2 sequence (O95838 1-553 D470N): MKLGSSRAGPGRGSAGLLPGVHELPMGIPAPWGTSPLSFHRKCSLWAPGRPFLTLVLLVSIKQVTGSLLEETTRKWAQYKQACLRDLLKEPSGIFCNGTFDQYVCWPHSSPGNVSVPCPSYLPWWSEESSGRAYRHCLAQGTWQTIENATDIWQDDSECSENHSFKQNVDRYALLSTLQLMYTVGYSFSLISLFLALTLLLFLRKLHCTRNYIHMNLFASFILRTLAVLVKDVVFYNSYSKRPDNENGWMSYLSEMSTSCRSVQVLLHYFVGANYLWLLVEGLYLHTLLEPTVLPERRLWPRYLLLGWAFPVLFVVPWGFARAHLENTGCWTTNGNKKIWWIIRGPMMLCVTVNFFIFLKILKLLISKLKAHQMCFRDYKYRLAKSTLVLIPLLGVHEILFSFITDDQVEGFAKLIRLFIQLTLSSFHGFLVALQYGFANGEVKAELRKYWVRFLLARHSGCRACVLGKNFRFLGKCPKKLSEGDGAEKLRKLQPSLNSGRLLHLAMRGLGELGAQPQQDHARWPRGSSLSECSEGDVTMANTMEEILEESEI
How it was run: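 HEK293 clones stably transfected with the human GLP-2 receptor, selected with G418, were used. Intracellular cAMP was quantified by AlphaScreen. Responses were normalised to positive and vehicle controls, and EC50 and maximal response were taken from concentration-response curves.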

[4] = Chemical stability (RP-HPLC normalized purity after incubation at 40° C.); assay type: physicochemical; conditions: 14-day incubation, 0.2 mg/ml, normalized purity (area-%); for pH 6 normalized stability: pH 6, 40° C.; for pH 7 normalized stability: pH 7, 40° C.
How it was run: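 Peptide at 0.2 mg/ml final in water adjusted to pH 6, 7, 7.5 or 9, incubated at 40° C for 14 days. Purity measured as main-peak area-% by C18 RP-HPLC (acetonitrile/TFA/water gradient, UV 220 nm) and normalized to T=0 set at 100 for each pH.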

[5] = Solubility assessment (turbidity absorbance at 325 nm); assay type: physicochemical
How it was run: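 Peptide stock at 2 mg/ml in water at pH 2.5 diluted 1:1 into 100 mM acetate (pH 4.0, 5.0), histidine (pH 6.0, 7.0) or phosphate (pH 6.0, 7.0, 7.5) buffer. Absorbance at 280 and 325 nm read at ambient temperature (typically 25 °C), single samples (n=1).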

T1 sequence (P43220 24-463): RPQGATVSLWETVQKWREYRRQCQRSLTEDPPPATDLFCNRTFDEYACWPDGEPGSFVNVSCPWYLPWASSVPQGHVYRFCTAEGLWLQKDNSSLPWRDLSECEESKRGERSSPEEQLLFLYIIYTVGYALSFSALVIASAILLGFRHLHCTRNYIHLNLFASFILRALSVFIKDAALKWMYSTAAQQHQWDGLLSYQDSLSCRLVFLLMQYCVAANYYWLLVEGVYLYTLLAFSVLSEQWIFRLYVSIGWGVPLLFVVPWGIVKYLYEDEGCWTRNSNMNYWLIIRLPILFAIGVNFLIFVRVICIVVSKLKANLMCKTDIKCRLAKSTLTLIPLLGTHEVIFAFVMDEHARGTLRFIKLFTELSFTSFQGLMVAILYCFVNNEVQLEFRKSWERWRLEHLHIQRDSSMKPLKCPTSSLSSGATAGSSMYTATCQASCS

SMILES	Small intestinal wet weight [1]	Fasting blood glucose [1]	EC50 [2]	EC50 [3]	pH 6 normalized stability [4]	pH 7 normalized stability [4]	solubility ([5]; 100 mM acetate buffer pH 4.0, ambient temperature, read-out: Solubility Acetate buffer pH 4)	solubility ([5]; 100 mM acetate buffer pH 5.0, ambient temperature, read-out: Solubility Acetate buffer pH 5)	solubility ([5]; 100 mM histidine buffer pH 6.0, ambient temperature, read-out: Solubility Histidine buffer pH 6)	solubility ([5]; 100 mM histidine buffer pH 7.0, ambient temperature, read-out: Solubility Histidine buffer pH 7)	solubility ([5]; 100 mM phosphate buffer pH 6.0, ambient temperature, read-out: Solubility Phosphate buffer pH 6)	solubility ([5]; 100 mM phosphate buffer pH 7.0, ambient temperature, read-out: Solubility Phosphate buffer pH 7)	solubility ([5]; 100 mM phosphate buffer pH 7.5, ambient temperature, read-out: Solubility Phosphate buffer pH 7.5)
CC[C@H](C)[C@H](NC(=O)[C@H](Cc1ccccc1)NC(=O)[C@H](CC(=O)O)NC(=O)[C@H](CCCNC(=N)N)NC(=O)[C@H](C)NC(=O)[C@H](C)NC(=O)[C@H](CCC(N)=O)NC(=O)[C@H](CCCCNC(=O)COCCOCCNC(=O)[C@H](CCCCN)NC(=O)[C@H](CCC(=O)O)NC(=O)[C@H](CCCCN)NC(=O)CC[C@H](NC(=O)CCCCCCCCCCCCCCCCCCC(=O)O)C(=O)O)NC(=O)[C@H](CC(=O)O)NC(=O)[C@H](CC(C)C)NC(=O)[C@@H](NC(=O)[C@@H](NC(=O)[C@H](C)NC(=O)[C@H](CC(C)C)NC(=O)[C@H](CCC(=O)O)NC(=O)[C@H](CO)NC(=O)[C@H](CO)NC(=O)[C@H](Cc1ccccc1)NC(=O)[C@@H](NC(=O)CNC(=O)[C@H](CCC(=O)O)NC(=O)C(C)(C)NC(=O)[C@@H](N)Cc1c[nH]cn1)[C@@H](C)O)[C@@H](C)O)[C@@H](C)CC)C(=O)N[C@@H](C)C(=O)N[C@@H](Cc1c[nH]c2ccccc12)C(=O)N[C@@H](CC(C)C)C(=O)N[C@H](C(=O)N[C@@H](CCC(=O)O)C(=O)N[C@@H](Cc1c[nH]cn1)C(=O)N[C@@H](CCCCN)C(=O)N[C@H](C(=O)N[C@H](C(=O)N[C@@H](CC(=O)O)C(=O)O)[C@@H](C)O)[C@@H](C)CC)[C@@H](C)CC [Compound 50] (HELM PEPTIDE1{H.[Aib].E.G.T.F.S.S.E.L.A.T.I.L.D.K.Q.A.A.R.D.F.I.A.W.L.I.E.H.K.I.T.D}|PEPTIDE2{[O=C(O)CCCCCCCCCCCCCCCCCCC(=O)[*:2]].[gGlu].K.E.K.[O=C(COCCOCCN[*:1])[*:2]]}$PEPTIDE1,PEPTIDE2,16:R3-6:R2$$$V2.0)	1.43 g	5.57 mM	310 pM	56 pM									
CC[C@H](C)[C@H](NC(=O)[C@H](Cc1ccccc1)NC(=O)[C@H](CC(=O)O)NC(=O)[C@H](CCCNC(=N)N)NC(=O)[C@H](C)NC(=O)[C@H](C)NC(=O)[C@H](CCC(N)=O)NC(=O)[C@H](CCCCNC(=O)CC[C@H](NC(=O)CCCCCCCCCCCCCCCCC(=O)O)C(=O)O)NC(=O)[C@H](CC(=O)O)NC(=O)[C@H](CC(C)C)NC(=O)[C@@H](NC(=O)[C@@H](NC(=O)[C@H](C)NC(=O)[C@H](CC(C)C)NC(=O)[C@H](CCC(=O)O)NC(=O)[C@H](CO)NC(=O)[C@@H](NC(=O)[C@H](Cc1ccccc1)NC(=O)[C@H](CO)NC(=O)CNC(=O)[C@H](CCC(=O)O)NC(=O)C(C)(C)NC(=O)[C@@H](N)Cc1c[nH]cn1)[C@@H](C)O)[C@@H](C)O)[C@@H](C)CC)C(=O)N[C@@H](C)C(=O)N[C@@H](Cc1c[nH]c2ccccc12)C(=O)N[C@@H](CC(C)C)C(=O)N[C@H](C(=O)N[C@@H](CCC(N)=O)C(=O)N[C@@H](Cc1c[nH]cn1)C(=O)N[C@@H](CCCCN)C(=O)N[C@H](C(=O)N[C@H](C(=O)N[C@@H](CC(=O)O)C(=O)O)[C@@H](C)O)[C@@H](C)CC)[C@@H](C)CC [Compound 18] (HELM PEPTIDE1{H.[Aib].E.G.S.F.T.S.E.L.A.T.I.L.D.K.Q.A.A.R.D.F.I.A.W.L.I.Q.H.K.I.T.D}|PEPTIDE2{[O=C(O)CCCCCCCCCCCCCCCCC(=O)[*:2]].[gGlu]}$PEPTIDE1,PEPTIDE2,16:R3-2:R2$$$V2.0)	1.37 g	5.26 mM			A (>90% normalised stability)	A (>90% normalised stability)	< 1000 µg/mL	< 1000 µg/mL	≥ 1000 µg/mL	≥ 1000 µg/mL	≥ 1000 µg/mL	≥ 1000 µg/mL	≥ 1000 µg/mL
CC[C@H](C)[C@H](NC(=O)[C@H](Cc1ccccc1)NC(=O)[C@H](CC(=O)O)NC(=O)[C@H](CCCNC(=N)N)NC(=O)[C@H](C)NC(=O)[C@H](C)NC(=O)[C@H](CCCCNC(=O)CC[C@H](NC(=O)CCCCCCCCCCCCCCCCC(=O)O)C(=O)O)NC(=O)CNC(=O)[C@H](CC(=O)O)NC(=O)[C@H](CC(C)C)NC(=O)[C@@H](NC(=O)[C@@H](NC(=O)[C@H](C)NC(=O)[C@H](CC(C)C)NC(=O)[C@H](CCC(=O)O)NC(=O)[C@H](CO)NC(=O)[C@@H](NC(=O)[C@H](Cc1ccccc1)NC(=O)[C@@H](NC(=O)CNC(=O)[C@H](CCC(=O)O)NC(=O)C(C)(C)NC(=O)[C@@H](N)Cc1c[nH]cn1)[C@@H](C)O)[C@@H](C)O)[C@@H](C)O)[C@@H](C)CC)C(=O)N[C@@H](C)C(=O)N[C@@H](Cc1c[nH]c2ccccc12)C(=O)N[C@@H](CC(C)C)C(=O)N[C@H](C(=O)N[C@@H](CCC(=O)O)C(=O)N[C@@H](Cc1c[nH]cn1)C(=O)N[C@@H](CCCCN)C(=O)N[C@H](C(=O)N[C@H](C(=O)N[C@@H](CC(=O)O)C(=O)O)[C@@H](C)O)[C@@H](C)CC)[C@@H](C)CC [Compound 9] (HELM PEPTIDE1{H.[Aib].E.G.T.F.T.S.E.L.A.T.I.L.D.G.K.A.A.R.D.F.I.A.W.L.I.E.H.K.I.T.D}|PEPTIDE2{[O=C(O)CCCCCCCCCCCCCCCCC(=O)[*:2]].[gGlu]}$PEPTIDE1,PEPTIDE2,17:R3-2:R2$$$V2.0)	1.11 g	4.98 mM		56 pM									
CC[C@H](C)[C@H](NC(=O)[C@H](Cc1ccccc1)NC(=O)[C@H](CC(=O)O)NC(=O)[C@H](CCCNC(=N)N)NC(=O)[C@H](C)NC(=O)[C@H](C)NC(=O)[C@H](CCCCN)NC(=O)[C@H](CCCCNC(=O)CC[C@H](NC(=O)CCCCCCCCCCCCCCCCC(=O)O)C(=O)O)NC(=O)[C@H](CC(=O)O)NC(=O)[C@H](CC(C)C)NC(=O)[C@@H](NC(=O)[C@@H](NC(=O)[C@H](C)NC(=O)[C@H](CC(C)C)NC(=O)[C@H](CCC(=O)O)NC(=O)[C@H](CO)NC(=O)[C@@H](NC(=O)[C@H](Cc1ccccc1)NC(=O)[C@H](CO)NC(=O)CNC(=O)[C@H](CCC(=O)O)NC(=O)C(C)(C)NC(=O)[C@@H](N)Cc1c[nH]cn1)[C@@H](C)O)[C@@H](C)O)[C@@H](C)CC)C(=O)N[C@@H](C)C(=O)N[C@@H](Cc1c[nH]c2ccccc12)C(=O)N[C@@H](CC(C)C)C(=O)N[C@H](C(=O)N[C@@H](CCC(=O)O)C(=O)N[C@@H](Cc1c[nH]cn1)C(=O)N[C@@H](CCCCN)C(=O)N[C@H](C(=O)N[C@H](C(=O)N[C@@H](CC(=O)O)C(=O)O)[C@@H](C)O)[C@@H](C)CC)[C@@H](C)CC [Compound 5] (HELM PEPTIDE1{H.[Aib].E.G.S.F.T.S.E.L.A.T.I.L.D.K.K.A.A.R.D.F.I.A.W.L.I.E.H.K.I.T.D}|PEPTIDE2{[O=C(O)CCCCCCCCCCCCCCCCC(=O)[*:2]].[gGlu]}$PEPTIDE1,PEPTIDE2,16:R3-2:R2$$$V2.0)	1.35 g	4.60 mM			A (>90% normalised stability)	A (>90% normalised stability)							
